Experimental findings from patent US8921410B2, “Nicotinic acetylcholine receptor sub-type selective amides of diazabicycloalkanes” (Targacept, Inc., priority 2006, dated 2014) are described below.

Where two headings read alike, the source gives them in different places.

Usually Ki stands for a measure of affinity in units of concentration, obtained from inhibition or displacement.

Assay [1] addresses human α4β2 nAChR subtype (Homo sapiens (Human), UniProt P17787+P43681). The assay can be described thus: Radioligand ([3H]nicotine) binding at α4β2 nAChR, SH-EP1/human α4β2 clonal cell membranes. Conditions: read-out: Human α4β2 Ki. The method, then:
Preparation of Membranes from SH-EP1/Human α4β2 Clonal Cells:
Cell pellets from 40 150 mm culture dishes were pooled, and homogenized by Polytron (Kinematica GmbH, Switzerland) in 20 milliliters of ice-cold preparative buffer. The homogenate was centrifuged at 48,000 g for 20 minutes at 4° C. The resulting pellet was re-suspended in 20 mL of ice-cold preparative buffer and stored at −20° C.
(§1) On the day of the assay, the frozen membranes were thawed and spun at 48,000×g for 20 min. The supernatant was decanted and discarded. The pellet was resuspended in Dulbecco's phosphate buffered saline (PBS, Life Technologies) pH 7.4 and homogenized with the Polytron for 6 seconds. Protein concentrations were determined using a Pierce BCA Protein Assay Kit, with bovine serum albumin as the standard (Pierce Chemical Company, Rockford, Ill.).
(§2) Tissue was rinsed 3 times in PBS, pH 7.4. Scintillation fluid was added to filters containing the washed tissue and allowed to equilibrate.
(§3) Data were expressed as disintegrations per minute (DPMs). Within each assay, each point had 2-3 replicates. The replicates for each point were averaged and plotted against the log of the drug concentration.

The target in assay [2] is α7 nAChR subtype (Rattus norvegicus (Rat), UniProt Q05941). Put plainly: Radioligand ([3H]MLA) binding at α7 nAChR, rat hippocampus membranes. The method, then:
Rats (female, Sprague-Dawley), weighing 150-250 g, were maintained on a 12 h light/dark cycle and were allowed free access to water and food supplied by PMI Nutrition International, Inc. Animals were anesthetized with 70% CO2, then decapitated. Brains were removed and placed on an ice-cold platform. […] The homogenate was centrifuged at 18,000×g for 20 min at 4° C. and the resulting pellet was re-suspended in 10 volumes of ice-cold water. After 60 min incubation on ice, a new pellet was collected by centrifugation at 18,000×g for 20 min at 4° C. The final pellet was re-suspended in 10 volumes of buffer and stored at −20° C.
The binding of [^3H]MLA was measured using a modification of the methods of Davies et al., Neuropharmacol. […] [^3H]MLA (Specific Activity=25-35 Ci/mmol) was obtained from Tocris. The binding of [^3H]MLA was determined using a 2 h incubation at 21° C. Incubations were conducted in 48-well micro-titre plates and contained about 200 μg of protein per well in a final incubation volume of 300 μL. The incubation buffer was PBS and the final concentration of [^3H]MLA was 5 nM. The binding reaction was terminated by filtration of the protein containing bound ligand onto glass fiber filters (GF/B, Brandel) using a Brandel Tissue Harvester at room temperature. […] Each filter was washed with PBS (3×1 mL) at room temperature. Non-specific binding was determined by inclusion of 50 μM non-radioactive MLA in selected wells.
The inhibition of [^3H]MLA binding by test compounds was determined by including seven different concentrations of the test compound in selected wells. Each concentration was replicated in triplicate. IC50 values were estimated as the concentration of compound that inhibited 50 percent of specific [^3H]MLA binding.

In assay [3] the target is rat α4β2 nAChR subtype (Rattus norvegicus (Rat), UniProt P09483+P12390). Put plainly: Radioligand ([3H]nicotine) binding at α4β2 nAChR, rat cortex membranes. The method, then: Preparation of Membranes from Rat Cortex:
Rats (female, Sprague-Dawley), weighing 150-250 g, were maintained on a 12 h light/dark cycle and were allowed free access to water and food supplied by PMI Nutrition International, Inc. Animals were anesthetized with 70% CO2, and then decapitated. Brains were removed and placed on an ice-cold platform. […] The homogenate was centrifuged at 18,000×g for 20 min at 4° C. and the resulting pellet was re-suspended in 20 volumes of ice-cold water. After 60 min incubation on ice, a new pellet was collected by centrifugation at 18,000×g for 20 min at 4° C. The final pellet was re-suspended in 10 volumes of buffer and stored at −20° C.
as §1, §2, §3

The mark [4] stands for this setting: [3H]nicotine 5 nM, rat cortex membranes.
Setting [5] is: [3H]nicotine 5 nM, SH-EP1/human α4β2 membranes.
The mark [6] stands for this setting: [3H]MLA 5 nM, rat hippocampus membranes.
Setting [7] is: did not bind sufficiently in HTS at α7 to warrant Ki determination.

α7 nAChR subtype, sequence (Q05941 23-502): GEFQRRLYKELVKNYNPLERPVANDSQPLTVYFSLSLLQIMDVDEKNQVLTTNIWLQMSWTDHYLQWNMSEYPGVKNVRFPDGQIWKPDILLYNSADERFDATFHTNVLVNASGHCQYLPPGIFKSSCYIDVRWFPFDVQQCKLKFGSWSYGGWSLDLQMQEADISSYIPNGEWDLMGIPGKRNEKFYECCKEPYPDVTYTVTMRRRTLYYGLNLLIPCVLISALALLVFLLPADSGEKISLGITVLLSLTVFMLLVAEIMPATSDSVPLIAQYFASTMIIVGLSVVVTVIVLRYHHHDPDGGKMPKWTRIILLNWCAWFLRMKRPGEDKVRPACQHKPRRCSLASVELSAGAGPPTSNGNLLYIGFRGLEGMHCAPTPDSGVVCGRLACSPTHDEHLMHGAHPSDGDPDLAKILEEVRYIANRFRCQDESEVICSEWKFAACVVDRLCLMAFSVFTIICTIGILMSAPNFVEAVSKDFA
rat α4β2 nAChR subtype, sequence (P09483 31-630): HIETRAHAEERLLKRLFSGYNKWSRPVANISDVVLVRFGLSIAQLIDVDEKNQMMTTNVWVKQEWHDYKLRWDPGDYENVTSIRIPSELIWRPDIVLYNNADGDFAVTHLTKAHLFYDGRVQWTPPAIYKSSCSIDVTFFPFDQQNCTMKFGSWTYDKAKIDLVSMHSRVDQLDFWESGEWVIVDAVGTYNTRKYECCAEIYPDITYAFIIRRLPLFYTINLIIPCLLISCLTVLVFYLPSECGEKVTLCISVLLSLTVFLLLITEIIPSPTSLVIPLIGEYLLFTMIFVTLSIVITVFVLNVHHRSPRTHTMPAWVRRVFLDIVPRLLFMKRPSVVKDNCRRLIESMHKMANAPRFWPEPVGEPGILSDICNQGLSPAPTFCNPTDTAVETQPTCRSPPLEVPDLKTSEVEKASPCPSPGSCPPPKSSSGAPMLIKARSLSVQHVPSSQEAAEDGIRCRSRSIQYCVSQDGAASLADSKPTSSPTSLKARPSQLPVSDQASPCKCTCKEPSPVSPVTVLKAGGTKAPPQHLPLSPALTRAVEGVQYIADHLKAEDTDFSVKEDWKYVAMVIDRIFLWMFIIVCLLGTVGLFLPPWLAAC
rat α4β2 nAChR subtype, sequence (P12390 25-500): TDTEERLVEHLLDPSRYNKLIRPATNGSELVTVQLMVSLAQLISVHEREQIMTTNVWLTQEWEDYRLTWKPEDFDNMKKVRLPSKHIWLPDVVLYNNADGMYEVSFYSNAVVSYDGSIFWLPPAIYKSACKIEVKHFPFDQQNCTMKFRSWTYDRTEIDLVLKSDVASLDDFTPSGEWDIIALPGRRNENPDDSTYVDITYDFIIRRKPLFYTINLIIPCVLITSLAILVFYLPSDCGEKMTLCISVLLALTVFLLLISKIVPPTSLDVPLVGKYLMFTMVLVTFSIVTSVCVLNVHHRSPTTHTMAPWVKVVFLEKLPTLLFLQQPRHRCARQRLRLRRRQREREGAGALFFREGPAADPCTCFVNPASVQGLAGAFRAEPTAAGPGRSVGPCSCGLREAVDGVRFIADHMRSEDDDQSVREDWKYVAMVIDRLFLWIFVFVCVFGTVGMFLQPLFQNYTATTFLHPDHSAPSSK
human α4β2 nAChR subtype, sequence (P43681 29-627): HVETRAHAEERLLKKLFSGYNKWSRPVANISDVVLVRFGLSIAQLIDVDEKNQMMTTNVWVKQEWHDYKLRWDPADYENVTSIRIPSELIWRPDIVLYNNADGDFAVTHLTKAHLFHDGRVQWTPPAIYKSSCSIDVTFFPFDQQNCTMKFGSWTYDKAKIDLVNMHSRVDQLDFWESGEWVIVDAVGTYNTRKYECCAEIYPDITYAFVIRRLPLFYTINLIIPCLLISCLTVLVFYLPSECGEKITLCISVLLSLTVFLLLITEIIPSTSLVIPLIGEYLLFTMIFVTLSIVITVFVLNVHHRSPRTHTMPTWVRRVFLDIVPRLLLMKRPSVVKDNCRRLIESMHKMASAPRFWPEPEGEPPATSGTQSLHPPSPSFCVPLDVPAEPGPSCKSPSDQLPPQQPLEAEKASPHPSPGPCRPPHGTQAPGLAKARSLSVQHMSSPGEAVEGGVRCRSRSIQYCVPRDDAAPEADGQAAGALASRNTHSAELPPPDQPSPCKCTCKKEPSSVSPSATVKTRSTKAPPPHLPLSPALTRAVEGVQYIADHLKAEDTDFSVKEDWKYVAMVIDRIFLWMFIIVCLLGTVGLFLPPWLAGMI
human α4β2 nAChR subtype, sequence (P17787 26-502): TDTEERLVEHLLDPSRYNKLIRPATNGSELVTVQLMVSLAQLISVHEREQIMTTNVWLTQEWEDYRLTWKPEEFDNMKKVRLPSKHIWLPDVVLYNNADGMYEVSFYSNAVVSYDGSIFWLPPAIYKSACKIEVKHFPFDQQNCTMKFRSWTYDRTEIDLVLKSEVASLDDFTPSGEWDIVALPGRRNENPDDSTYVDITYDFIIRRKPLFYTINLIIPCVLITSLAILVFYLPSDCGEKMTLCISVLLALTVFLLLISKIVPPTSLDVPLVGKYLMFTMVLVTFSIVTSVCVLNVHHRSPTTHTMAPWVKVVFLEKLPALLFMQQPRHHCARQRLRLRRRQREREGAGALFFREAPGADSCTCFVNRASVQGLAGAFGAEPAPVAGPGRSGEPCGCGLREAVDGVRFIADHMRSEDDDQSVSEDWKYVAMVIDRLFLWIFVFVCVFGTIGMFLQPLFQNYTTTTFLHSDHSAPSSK

Turning to `O=C(c1cc(Br)co1)N1CC2CNCC(C2)C1`, the Ki in assay [1] was 1.7 nM; in assay [3] (setting [4]), 12 nM. Besides, in assay [2], the “α7 high through-put screening outcome (Ki not determined)” value is “ND; failed HTS”.

With `O=C(c1ccncc1)N1CC2CNCC(C2)C1`, the Ki turned out to be 18 nM in assay [1] (setting [5]), 1700 nM in assay [2] (setting [6]) and 110 nM in assay [3] (setting [4]).

As for `O=C(c1cc(C2CC2)on1)N1CC2CNCC(C2)C1`, the inhibitory constant (Ki) in assay [1] (setting [5]) was 83 nM; in assay [3], 25 nM. The “α7 high through-put screening outcome (Ki not determined)” value in assay [2] (setting [7]) was “ND; failed HTS”.

Turning to `O=C(c1occc1Br)N1CC2CNCC2C1` (stereo not drawn), the Ki in assay [1] (setting [5]) amounted to 1.5 nM; in assay [2] (setting [6]), 12000 nM; in assay [3] it was 1.5 nM.

As for `Cc1oncc1C(=O)N1CC2CNCC(C2)C1`, the values for the inhibition constant Ki in assay [1] and in assay [3] (setting [4]) were 31 nM and 65 nM, respectively. Further, in assay [2] (setting [7]), the “α7 high through-put screening outcome (Ki not determined)” value was “ND; failed HTS”.

As for `Cc1oc(C(=O)N2CC3CNCC3C2)cc1Br` (stereo not drawn), the figures for the Ki in assay [1] (setting [5]) and in assay [3] were 22 nM and 20 nM, respectively. For the same molecule, the “α7 high through-put screening outcome (Ki not determined)” value in assay [2] (setting [7]) is listed as “ND; failed HTS”.

With `Cc1nocc1C(=O)N1CC2CNCC2C1` (stereo not drawn), the values for the Ki in assay [1] (setting [5]), in assay [2] (setting [6]) and in assay [3] (setting [4]) were 14 nM, 56000 nM and 24 nM, respectively.

For `O=C(c1ccno1)N1CC2CNCC(C2)C1`, the inhibitory constant (Ki) in assay [1] (setting [5]) came to 30 nM; in assay [3] (setting [4]), 52 nM. In assay [2] (setting [7]), the “α7 high through-put screening outcome (Ki not determined)” value is on record as “ND; failed HTS”.

Turning to `C#Cc1ccc(C(=O)N2CC3CNCC(C3)C2)o1`, the Ki amounted to 47 nM in assay [1] (setting [5]) and 220 nM in assay [3] (setting [4]). The “α7 high through-put screening outcome (Ki not determined)” value in assay [2] (setting [7]) was “ND; failed HTS”.

Consider `O=C(c1cc(Br)no1)N1CC2CNCC2C1` (stereo not drawn), for which the Ki was found to be 44 nM in assay [1] (setting [5]) and 17 nM in assay [3] (setting [4]). Moreover, the “α7 high through-put screening outcome (Ki not determined)” value in assay [2] (setting [7]) is listed as “ND; failed HTS”.

On to `COc1coc(C(=O)N2CC3CNCC3C2)c1OC` (stereo not drawn), for which the inhibition constant Ki is 40 nM in assay [1] (setting [5]) and 140 nM in assay [3] (setting [4]). The “α7 high through-put screening outcome (Ki not determined)” value in assay [2] (setting [7]) is given as “ND; failed HTS”.

Turning to `Cc1occc1C(=O)N1CC2CNCC2C1` (stereo not drawn), the inhibition constant Ki was 29 nM in assay [1] (setting [5]), 160000 nM in assay [2] (setting [6]) and 61 nM in assay [3] (setting [4]).

As to `O=C(c1cc(F)co1)N1CC2CNCC2C1` (stereo not drawn), the figures for the Ki in assay [1] (setting [5]) and in assay [3] (setting [4]) were 21 nM and 36 nM, respectively. The “α7 high through-put screening outcome (Ki not determined)” value in assay [2] (setting [7]) was “ND; failed HTS”.

For the molecule `O=C(c1occc1Cl)N1CC2CNCC2C1` (stereo not drawn), the figures for the inhibitory constant (Ki) in assay [1] (setting [5]) and in assay [3] (setting [4]) were 2.4 nM and 2.8 nM, respectively. Also, in assay [2] (setting [7]), the “α7 high through-put screening outcome (Ki not determined)” value is “ND; failed HTS”.

On to `O=C(c1ccc(Br)o1)N1CC2CNCC(C2)C1`, for which the Ki in assay [1] (setting [5]) is 51 nM; in assay [3], 41 nM. In assay [2] (setting [7]), the “α7 high through-put screening outcome (Ki not determined)” value is reported as “ND; failed HTS”.

On to `O=C(c1occc1F)N1CC2CNCC2C1` (stereo not drawn), for which the Ki amounted to 27 nM in assay [1] (setting [5]) and 35 nM in assay [3] (setting [4]). Moreover, in assay [2], the “α7 high through-put screening outcome (Ki not determined)” value is given as “ND; failed HTS”.

`O=C(c1cc(F)co1)N1CC2CNCC(C2)C1`: the inhibition constant (Ki) in assay [1] (setting [5]) came out at 14 nM; in assay [3] (setting [4]), 28 nM. In assay [2] (setting [7]), the “α7 high through-put screening outcome (Ki not determined)” value is reported as “ND; failed HTS”.

For the molecule `O=C(c1ccoc1)N1CC2CNCC2C1` (stereo not drawn), the inhibitory constant (Ki) was determined as 220 nM in assay [1] (setting [5]), 3100 nM in assay [2] (setting [6]) and 53 nM in assay [3].

On to `O=C(c1ccc(Br)o1)N1CC2CNCC2C1` (stereo not drawn), for which the results for the Ki in assay [1] (setting [5]), in assay [2] and in assay [3] (setting [4]) were 73 nM, 12000 nM and 54 nM, respectively.

For the molecule `O=C(c1cc(-c2ccoc2)co1)N1CC2CNCC2C1` (stereo not drawn), the values for the Ki in assay [1] (setting [5]) and in assay [3] (setting [4]) were 95 nM and 110 nM, respectively. The “α7 high through-put screening outcome (Ki not determined)” value in assay [2] (setting [7]) is on record as “ND; failed HTS”.

In the case of `O=C(c1ccncc1)N1CC2CNCC2C1` (stereo not drawn), the inhibition constant Ki was found to be 160 nM in assay [1] (setting [5]) and 26 nM in assay [3] (setting [4]). In addition, in assay [2] (setting [7]), the “α7 high through-put screening outcome (Ki not determined)” value is “ND; failed HTS”.

As for `O=C(c1ccc([N+](=O)[O-])o1)N1CC2CNCC2C1` (stereo not drawn), the Ki in assay [1] (setting [5]) was found to be 31 nM; in assay [2] (setting [6]) it was 2900 nM; in assay [3] (setting [4]), 35 nM.

Regarding `O=C(c1ccon1)N1CC2CNCC2C1` (stereo not drawn), the Ki in assay [1] (setting [5]) amounted to 90 nM; in assay [3] (setting [4]), 89 nM. For the same molecule, the “α7 high through-put screening outcome (Ki not determined)” value in assay [2] (setting [7]) is “ND; failed HTS”.
